Laboratory results from patent US8618285B2, “Triazole derivatives” (Merck Patent GmbH, priority 2005, dated 2013).

Target: T1, Recombinant human HSP90α (Homo sapiens, UniProt P07900)
T1 construct: host or cells: E. coli
Assay: radioligand filter binding test, competitive inhibition of [3H]17AAG binding to HSP90
Settings: [3H]17AAG 0.08 μM, HSP90 1.5 μg/assay, 22° C., 30 min
Excerpt: The binding of geldanamycin or 17-allylamino-17-demethoxygeldanamycin (17AAG) to HSP90 and competitive inhibition thereof can be utilised in order to determine the inhibitory activity of the compounds according to the invention (Carreras et al. 2003, Chiosis et al. 2002).
In the specific case, a radioligand filter binding test is used. The radio-ligand used here is tritium-labelled 17-allylaminogeldanamycin, [3H]17AAG. This filter binding test allows a targeted search for inhibitors which interfere with the ATP binding site. Material
Recombinant human HSP90α (E. coli expressed, 95% purity); [3H]17AAG (17-allylaminogeldanamycin, [allylamino-2,3-^3H. Specific activity: 1.11×10^12 Bq/mmol (Moravek, MT-1717);
HEPES filter buffer (50 mM HEPES, pH 7.0, 5 mM MgCl2, BSA 0.01%) Multiscreen FB (1 μm) filter plate (Millipore, MAFBNOB 50).
The 96-well microtitre filter plates are firstly irrigated and coated with 0.1% of polyethylenimine.
The test is carried out under the following conditions: • Reaction temperature 22° C. • Reaction time: 30 min., shaking at 800 rpm • Test volume: 50 μl • Final concentrations: • 50 mM HEPES HCl, pH 7.0, 5 mM MgCl2, 0.01% (w/v) BSA • HSP90: 1.5 μg/assay • [3H]17AAG: 0.08 μM.
At the end of the reaction, the supernatant in the filter plate is removed by suction with the aid of a vacuum manifold (Multiscreen Separation System, Millipore), and the filter is washed twice.
The filter plates are then measured in a beta counter (Microbeta, Wallac) with scintillator (Microscint 20, Packard).
“% of control” is determined from the “counts per minutes” values and the IC50 value of a compound is calculated therefrom.

SMILES	IC50 [nM]
CCCN(C)S(=O)(=O)c1cc(-c2nnc(O)n2-c2ccccc2Cl)c(O)cc1O [A28, 5-[2,4-dihydroxy-5-(N-propyl-N-methylsulfamoyl)phenyl]-4-(2-chloro-phenyl)-3-hydroxy-4H-1,2,4-triazole]	160
CCCN(C)S(=O)(=O)c1cc(-c2nnc(O)n2-c2ccccc2C)c(O)cc1O [A40, 5-[2,4-dihydroxy-5-(N-propyl-N-methylsulfamoyl)phenyl]-4-(2-methyl-phenyl)-3-hydroxy-4H-1,2,4-triazole]	140
CCCN(C)S(=O)(=O)c1cc(-c2nnc(O)n2-c2cccc(F)c2)c(O)cc1O [A39, 5-[2,4-dihydroxy-5-(N-propyl-N-methylsulfamoyl)phenyl]-4-(3-fluoro-phenyl)-3-hydroxy-4H-1,2,4-triazole]	180
CCCN(C)S(=O)(=O)c1cc(-c2nnc(O)n2-c2cccc(Cl)c2)c(O)cc1O [A38, 5-[2,4-dihydroxy-5-(N-propyl-N-methylsulfamoyl)phenyl]-4-(3-chloro-phenyl)-3-hydroxy-4H-1,2,4-triazole]	330

Second part, the molecule after the results:

IC50 [nM]	SMILES
140	CN(Cc1ccccc1)S(=O)(=O)c1cc(-c2nnc(O)n2-c2ccccc2Cl)c(O)cc1O [A32, 5-[2,4-dihydroxy-5-(N-benzyl-N-methylsulfamoyl)phenyl]-4-(2-chloro-phenyl)-3-hydroxy-4H-1,2,4-triazole]
120	CCCCN(C)S(=O)(=O)c1cc(-c2nnc(O)n2-c2ccccc2Cl)c(O)cc1O [A26, 5-[2,4-dihydroxy-5-(N-butyl-N-methylsulfamoyl)phenyl]-4-(2-chloro-phenyl)-3-hydroxy-4H-1,2,4-triazole]
80	CCCN(C)S(=O)(=O)c1cc(-c2nnc(O)n2-c2ccccc2CC)c(O)cc1O [A34, 5-[2,4-dihydroxy-5-(N-propyl-N-methylsulfamoyl)phenyl]-4-(2-ethyl-phenyl)-3-hydroxy-4H-1,2,4-triazole]
